According to patent US20220177538A1, “CO-AGONISTS AT GLP-1 AND GIP RECEPTORS SUITABLE FOR ORAL DELIVERY” (Novo Nordisk A/S, priority 2020, published 2022):
Starred links: 1 amine or outer side, 2 acyl side, 3 side chain; linkers in the order of their positions; H or OH if unused. Non-standard residues stand in square brackets, D forms with d. Residues, ends and D or L forms follow the SMILES beside them. Groups on a side chain read outwards from the residue. *: point of attachment. C18 diacid = O=C(O)CCCCCCCCCCCCCCCCC(=O)*; γGlu = O=C(O)[C@H](CCC(=O)[*:2])N[*:1]; εLys = N[C@@H](CCCCN[*:1])C(=O)[*:2]; AEEA = NCCOCCOCC(=O)O; Aib = CC(C)(N)C(=O)O

Assay: Pharmacokinetic study in dogs after oral dosing of tablets with SNAC
Format: in vivo, Beagle dogs
Protocol: The purpose of this example is to determine the half-life and plasma exposure in vivo of the compounds of the present invention after p.o. administration to beagle dogs, i.e. the terminal half-life and concentration of test substance that reaches circulation with time. This is done in a pharmacokinetic (PK) study, where these parameters of the compound in question are determined. By terminal half-life is generally meant the period of time it takes to halve a certain plasma concentration, measured after the initial distribution phase.
The amount of SNAC in the tablet composition was 100-300 mg, the amount of magnesium stearate in the tablet composition was 7.7 mg, and the target amount of each test substance in the tablet composition was 3-4 mg.
Male beagle dogs, 1-7 years of age and weighing 9-17 kg during the study period, were included in the study. The dogs were dosed in a fasting state. The dogs were group housed in pens (12 hours light: 12 hours dark), and fed individually and restrictedly once daily with Royal Canin Medium Adult dog food (Royal Canin Products, China Branch, or Brogaarden A/S, Denmark). The dogs were used for repeated PK studies with a suitable wash-out period between successive dosing. An appropriate acclimatization period was given prior to initiation of the first PK study. All handling, dosing, and blood sampling of the animals were performed by trained and skilled staff. Before the studies, the dogs were fasted overnight and from 0 to 4 hours after dosing. The dogs were restricted to water 1 hour before dosing until 4 hours after dosing, but otherwise had ad libitum access to water during the whole period.
The compositions were administered by a single oral dosing to the dogs in groups of 6-8 dogs. […] The mouth was then closed, and 10 mL of tap water was given by syringe or gavage to facilitate swallowing of the tablet.
One blood sample was drawn before dosing, and additional samples were drawn at predefined time points after dosing for up to 240 hours, such as up to 10 hours, to adequately cover the full plasma concentration-time absorption profile of the test substance. For each blood sample time point, approximately 0.8 mL of whole blood was collected in a 1.5 mL EDTA-coated tube, which was gently turned to mix the sample with EDTA. Blood samples were collected in EDTA buffer (8 mM) and then centrifuged at 4° C. 2000 g for 10 minutes. Plasma was pipetted into Micronic tubes on dry ice, and kept at −20° C. or lower until analysis. Blood samples were taken as appropriate, for example from a venflon in the cephalic vein in the front leg for the first 2 hours and then with syringe from the jugular vein for the rest of the time points. The first few drops were allowed to drain from the venflon to avoid heparin saline from the venflon in the sample.
All blood samples were collected into test tubes containing EDTA for stabilisation and kept on ice until centrifugation. Plasma was separated from whole blood by centrifugation and the plasma was stored at −20° C. or lower until analysis.
The plasma was analysed for test substance using LC-MS (Liquid Chromatography-Mass Spectrometry) as known to the person skilled in the art. […] RP-HPLC separation was achieved using a linear gradient of 1:1 acetonitrile/methanol in 1% aqueous formic acid using either: a Phenomenex Onyx Monolithic C18 column (50×2.0 mm) and a flow rate of 0.8 mL/min at 30° C.; or an Agilent Poroshell 120 SB-C18 column (50×2.1 mm, 2.7 μm) at a flow rate of 0.4 mL/min at 60° C. The mass spectrometer was operated in either positive ionization SIM mode or positive ionization PRM mode.
For each individual animal, a plasma concentration-time profile was analysed by a non-compartmental model in Pharsight Phoenix WinNonLin ver.

[1] = oral tablet, SNAC 100 mg, test substance 3 mg, Beagle dogs, arithmetic mean

Row | SMILES | AUC/Dose (dog, in vivo, po) [kg·h/L] | Cmax/Dose (dog, in vivo, po) [kg/L] | further results
1 | CC[C@H](C)[C@H](NC(=O)[C@H](Cc1ccccc1)NC(=O)[C@H](CCC(=O)O)NC(=O)[C@H](CCCNC(=N)N)NC(=O)[C@H](C)NC(=O)[C@H](C)NC(=O)[C@H](CCC(N)=O)NC(=O)[C@H](CCCCNC(=O)[C@@H](N)CCCCNC(=O)[C@@H](N)CCCCNC(=O)CC[C@H](NC(=O)CCCCCCCCCCCCCCCCC(=O)O)C(=O)O)NC(=O)[C@H](CCC(=O)O)NC(=O)[C@H](CC(C)C)NC(=O)[C@H](Cc1ccc(O)cc1)NC(=O)[C@@H](NC(=O)[C@H](CO)NC(=O)[C@H](Cc1ccc(O)cc1)NC(=O)[C@H](CC(=O)O)NC(=O)[C@H](CO)NC(=O)[C@@H](NC(=O)[C@H](Cc1ccccc1)NC(=O)[C@@H](NC(=O)CNC(=O)[C@H](CCC(=O)O)NC(=O)C(C)(C)NC(=O)[C@@H](N)Cc1ccc(O)cc1)[C@@H](C)O)[C@@H](C)O)[C@@H](C)CC)C(=O)N[C@@H](CC(N)=O)C(=O)N[C@@H](Cc1c[nH]c2ccccc12)C(=O)N[C@@H](CC(C)C)C(=O)N[C@@H](CC(C)C)C(=O)N[C@@H](C)C(=O)NCC(=O)NCC(=O)N1CCC[C@H]1C(=O)N[C@@H](CO)C(=O)N[C@@H](CO)C(=O)NCC(=O)N[C@@H](C)C(=O)N1CCC[C@H]1C(=O)N1CCC[C@H]1C(=O)N1CCC[C@H]1C(=O)N[C@@H](CO)C(=O)O [Compound 11] (H-Y[Aib]EGTFTSDYSIYLEK([εLys-εLys-γGlu-C18 diacid])QAAREFINWLLAGGPSSGAPPPS-OH) | 7.1 | 0.19 | –
2 | CC[C@H](C)[C@H](NC(=O)[C@H](Cc1ccccc1)NC(=O)[C@H](CCC(=O)O)NC(=O)[C@H](CCCNC(=N)N)NC(=O)[C@H](C)NC(=O)[C@H](C)NC(=O)[C@H](CCC(N)=O)NC(=O)[C@H](CCCCNC(=O)[C@@H](N)CCCCNC(=O)[C@@H](N)CCCCNC(=O)CC[C@H](NC(=O)CCCCCCCCCCCCCCCCC(=O)O)C(=O)O)NC(=O)[C@H](CCC(=O)O)NC(=O)[C@H](CC(C)C)NC(=O)[C@H](Cc1ccc(O)cc1)NC(=O)[C@@H](NC(=O)[C@H](CO)NC(=O)[C@H](Cc1ccc(O)cc1)NC(=O)[C@H](CC(=O)O)NC(=O)[C@H](CO)NC(=O)[C@@H](NC(=O)[C@H](Cc1ccccc1)NC(=O)[C@@H](NC(=O)CNC(=O)[C@H](CCC(=O)O)NC(=O)C(C)(C)NC(=O)[C@@H](N)Cc1ccc(O)cc1)[C@@H](C)O)[C@@H](C)O)[C@@H](C)CC)C(=O)N[C@@H](CCC(=O)O)C(=O)N[C@@H](Cc1c[nH]c2ccccc12)C(=O)N[C@@H](CC(C)C)C(=O)N[C@@H](CC(C)C)C(=O)N[C@@H](C)C(=O)NCC(=O)NCC(=O)N1CCC[C@H]1C(=O)N[C@@H](CO)C(=O)N[C@@H](CO)C(=O)NCC(=O)N[C@@H](C)C(=O)N1CCC[C@H]1C(=O)N1CCC[C@H]1C(=O)N1CCC[C@H]1C(=O)N[C@@H](CO)C(=O)O [Compound 9] (H-Y[Aib]EGTFTSDYSIYLEK([εLys-εLys-γGlu-C18 diacid])QAAREFIEWLLAGGPSSGAPPPS-OH) | 12.1 | 0.24 | –
3 | CC[C@H](C)[C@H](NC(=O)[C@H](Cc1ccccc1)NC(=O)[C@H](CCC(=O)O)NC(=O)[C@H](CCCNC(=N)N)NC(=O)[C@H](C)NC(=O)[C@H](C)NC(=O)[C@H](CCC(N)=O)NC(=O)[C@H](CCCCNC(=O)[C@@H](N)CCCCNC(=O)[C@@H](N)CCCCNC(=O)CC[C@H](NC(=O)CCCCCCCCCCCCCCCCC(=O)O)C(=O)O)NC(=O)[C@H](CCC(=O)O)NC(=O)[C@H](CC(C)C)NC(=O)[C@H](CC(C)C)NC(=O)[C@@H](NC(=O)[C@H](CO)NC(=O)[C@H](Cc1ccc(O)cc1)NC(=O)[C@H](CC(=O)O)NC(=O)[C@H](CO)NC(=O)[C@@H](NC(=O)[C@H](Cc1ccccc1)NC(=O)[C@@H](NC(=O)CNC(=O)[C@H](CCC(=O)O)NC(=O)C(C)(C)NC(=O)[C@@H](N)Cc1ccc(O)cc1)[C@@H](C)O)[C@@H](C)O)[C@@H](C)CC)C(=O)N[C@@H](CC(N)=O)C(=O)N[C@@H](Cc1c[nH]c2ccccc12)C(=O)N[C@@H](CC(C)C)C(=O)N[C@@H](CC(C)C)C(=O)N[C@@H](C)C(=O)NCC(=O)NCC(=O)N1CCC[C@H]1C(=O)N[C@@H](CO)C(=O)N[C@@H](CO)C(=O)NCC(=O)N[C@@H](C)C(=O)N1CCC[C@H]1C(=O)N1CCC[C@H]1C(=O)N1CCC[C@H]1C(=O)N[C@@H](CO)C(=O)O [Compound 15] (H-Y[Aib]EGTFTSDYSILLEK([εLys-εLys-γGlu-C18 diacid])QAAREFINWLLAGGPSSGAPPPS-OH) | – | – | Tmax (dog, in vivo, po): 2.0 h; t1/2 (dog, in vivo, po): 46 h
4 | CC[C@H](C)[C@H](NC(=O)[C@H](Cc1ccccc1)NC(=O)[C@H](CCC(=O)O)NC(=O)[C@H](CCCNC(=N)N)NC(=O)[C@H](C)NC(=O)[C@H](C)NC(=O)[C@H](CCC(N)=O)NC(=O)[C@H](CCCCNC(=O)COCCOCCNC(=O)COCCOCCNC(=O)CC[C@H](NC(=O)CCCCCCCCCCCCCCCCC(=O)O)C(=O)O)NC(=O)[C@H](CCC(=O)O)NC(=O)[C@H](CC(C)C)NC(=O)[C@H](Cc1ccc(O)cc1)NC(=O)[C@@H](NC(=O)[C@H](CO)NC(=O)[C@H](Cc1ccc(O)cc1)NC(=O)[C@H](CC(=O)O)NC(=O)[C@H](CO)NC(=O)[C@@H](NC(=O)[C@H](Cc1ccccc1)NC(=O)[C@@H](NC(=O)CNC(=O)[C@H](CCC(=O)O)NC(=O)C(C)(C)NC(=O)[C@@H](N)Cc1ccc(O)cc1)[C@@H](C)O)[C@@H](C)O)[C@@H](C)CC)C(=O)N[C@@H](CCC(=O)O)C(=O)N[C@@H](Cc1c[nH]c2ccccc12)C(=O)N[C@@H](CC(C)C)C(=O)N[C@@H](CC(C)C)C(=O)N[C@@H](C)C(=O)NCC(=O)NCC(=O)N1CCC[C@H]1C(=O)N[C@@H](CO)C(=O)N[C@@H](CO)C(=O)NCC(=O)N[C@@H](C)C(=O)N1CCC[C@H]1C(=O)N1CCC[C@H]1C(=O)N1CCC[C@H]1C(=O)N[C@@H](CO)C(=O)O [Compound 10] (H-Y[Aib]EGTFTSDYSIYLEK([AEEA-AEEA-γGlu-C18 diacid])QAAREFIEWLLAGGPSSGAPPPS-OH) | 8.4 | 0.20 | –
5 | CC[C@H](C)[C@H](NC(=O)[C@H](Cc1ccccc1)NC(=O)[C@H](CCC(=O)O)NC(=O)[C@H](CCCNC(=N)N)NC(=O)[C@H](C)NC(=O)[C@H](C)NC(=O)[C@H](CCC(N)=O)NC(=O)[C@H](CCCCNC(=O)[C@@H](N)CCCCNC(=O)[C@@H](N)CCCCNC(=O)CC[C@H](NC(=O)CCCCCCCCCCCCCCCCC(=O)O)C(=O)O)NC(=O)[C@H](CCC(=O)O)NC(=O)[C@H](CC(C)C)NC(=O)[C@H](Cc1ccc(O)cc1)NC(=O)[C@@H](NC(=O)[C@H](CO)NC(=O)[C@H](Cc1ccc(O)cc1)NC(=O)[C@H](CC(=O)O)NC(=O)[C@H](CO)NC(=O)[C@@H](NC(=O)[C@H](Cc1ccccc1)NC(=O)[C@@H](NC(=O)CNC(=O)[C@H](CCC(=O)O)NC(=O)C(C)(C)NC(=O)[C@@H](N)Cc1ccc(O)cc1)[C@@H](C)O)[C@@H](C)O)[C@@H](C)CC)C(=O)N[C@@H](CCC(=O)O)C(=O)N[C@@H](Cc1c[nH]c2ccccc12)C(=O)N[C@@H](CC(C)C)C(=O)N[C@@H](CC(C)C)C(=O)N[C@@H](CCCNC(=N)N)C(=O)NCC(=O)NCC(=O)N1CCC[C@H]1C(=O)N[C@@H](CCC(=O)O)C(=O)N[C@@H](CO)C(=O)NCC(=O)N[C@@H](C)C(=O)N1CCC[C@H]1C(=O)N1CCC[C@H]1C(=O)N1CCC[C@H]1C(=O)N[C@@H](CO)C(=O)O [Compound 13] (H-Y[Aib]EGTFTSDYSIYLEK([εLys-εLys-γGlu-C18 diacid])QAAREFIEWLLRGGPESGAPPPS-OH) | – | – | AUC/Dose [1]: 14.8 kg·h/L; Cmax/Dose [1]: 0.29 kg/L
